“And” between values parts separate entries of the source, which are not always exact repeats. Identical values can stand only once.
Assay: mn = molality of the nth substance listed, in mol/kg
Settings: 101 kPa, Liquid; for viscosity: Capillary tube (Ostwald / Ubbelohde) method; for speed of sound: Frequency=3 MHz, Sing-around technique in a fixed-path interferometer; for mass density: Vibrating tube method

CCCC[N+](CCCC)(CCCC)CCCC.[I-] [tetrabutylammonium iodide] + O
Settings	mass density, m1 = 0.01 [kg/m3]	mass density, m1 = 0.03 [kg/m3]	speed of sound, m1 = 0.01 [m/s]	speed of sound, m1 = 0.03 [m/s]	viscosity, m1 = 0.01	viscosity, m1 = 0.03
288.15 K	1001.07	1002.22	1468.9	1473.6	1.173 mPa·s and 1.171 mPa·s	1.197 mPa·s and 1.201 mPa·s and 1.205 mPa·s
293.15 K	1000.16	1001.29	1484.9	1489.1	1.006 mPa·s and 1.007 mPa·s	1.033 mPa·s and 1.025 mPa·s and 1.036 mPa·s
298.15 K	998.972	1000.09	1498.9	1502.8	0.861 mPa·s and 0.862 mPa·s	0.883 mPa·s and 0.882 mPa·s and 0.884 mPa·s
303.15 K	997.53	998.614	1511.1	1514.5	0.818 mPa·s and 0.817 mPa·s	0.83 mPa·s and 0.828 mPa·s and 0.831 mPa·s
308.15 K	995.952	997.021	1521.2	1524.4	0.731 mPa·s and 0.732 mPa·s	0.739 mPa·s and 0.744 mPa·s

Source: the NIST ThermoML archive (doi:10.1021/acs.jced.5b00198)
